Columns and labels:
[1] = tested on: adjuvant induced arthritis; test: Adjuvant induced arthritis in rats (chronic inflammation accompanied by joint destruction); format: in vivo, rat (Royal Hart, Wistar strain); details: oral; for Dead/Treated At 21 Days: once daily days 0 through 13; for % Inhibition of Swelling (Primary lesion), Day 14: * significantly different from adjuvant controls
Experimental: Groups of three Royal Hart, Wistar strain rats weighing 200±10 grams each were injected intradermally in the right hind paw with Freund's adjuvant (dried human tubercle bacilli in a mineral oil vehicle) at a dose of 2 mg./kg. of body weight. Test compound was administered orally in a 1.5% starch vehicle at various doses once daily on days 0 through 13 post challenge. Control rats were treated in a similar manner, but given only starch vehicle. On the 14th and 21st day post challenge the diameter of the injected paw (primary lesion) was measured by micrometer caliper. The volume of inflamed paws were estimated from these measurements and the results are expressed as percent inhibition of swelling as compared to controls. At the same time, the other inflamed sites, such as ears, paws and tail (secondary lesions) were observed and each rat was graded as to degree of inflammation and swelling present. The grading is based on a scale of 0 to 24, where 0 represents a complete absence of induced arthritic nodules and 24 represents the maximum degree of inflammation. The mean grade for each treated group is calculated and the effects of each compound are expressed as percent inhibition of the control grade. Table I records the results of tests conducted with typical compounds of the present invention. These compounds appear to suppress the progression of the arthritis and associated joint deterioration.

[2] = tested on: articular cartilage breakdown by arthritic synovial tissue; test: Synovium-cartilage test (hexoseamine/hydroxyproline ratio of cartilage cultured with arthritic synovium); format: cell-based, rabbit (New Zealand); details: Oryctolagus cuniculus; 10 mcg./ml.; 48 hours at 37° C.; mean of 3 or 4 tests; active if average greater than 50%; read-out: Mean % Inhibition (suppression of cartilage breakdown)
Experimental: The compounds of the invention have been tested by the synovium-cartilage test which is a modification of the method described by Dumonde, D. C. and Glynn, L. E., The Production of Arthritis in Rabbits by an Immunological Reaction to Fibrin, Brit. J. Exp. Pathol., 43, 373 (1962).
Male, New Zealand rabbits, weighing 1.6-3.0 kg. were used. The rabbits were housed in individual cages and given food and water ad libitum. The rabbits were sensitized to bovine serum albumin (BSA) by injection of 20 mg./kg. BSA in complete Freund's adjuvant. The emulsion was injected subcutaneously into multiple sites on the back. Total injection volume equaled one […]. of body weight. Between 18 and 21 days following immunization, the rabbits were challenged with an intraarticular injection of 5 mg. BSA into the right knee joint. Unanesthetized animals were restrained on their backs, and a 20-gauge, one-inch needle, with a 5 ml. syringe, was introduced into the joint and synovial fluid aspirated to determine that the synovium had been penetrated. The needle was then left in place for injection of the antigen. A 0.5 ml. portion of 10 mg./ml. BSA in sterile saline was injected into the synovial sac. The rabbits received an additional five intraarticular injections of 5 mg. BSA into the right knee at intervals of 12-16 days. Following the sixth injection the rabbits were sacrificed by an intracardiac injection of 5 ml. of a saturated solution of potassium chloride. The right knee was shaved. A longitudinal incision was made over the patellar ligament and the skin reflected under sterile conditions. The patellar ligament was cut transversely and reflected. Fascia and capsular tissue were trimmed from the lateral and medial aspects of the knee exposing the synovial membrane. The membrane was grasped with forceps, stretched laterally and then excised in a single piece on each side of the knee. The infrapatellar fat pad was removed and the joint space widened by cutting the anterior attachments of the menisci and severing the collateral cruciate ligaments. The femur and tibia were then separated and the menisci excised along with sufficient amounts of synovial tissue from the popliteal area adhering to the menisci. The tissues were immediately placed in a sterile Petri dish containing tissue culture medium composed of MEM (Earle's salts) without sodium bicarbonate,with 25 mM Hepes buffer, pH adjusted to 7.34-7.37, and antibiotics (streptomycin and neomycin, 100 units/ml.). Ten percent normal rabbit serum (NRS) was added. The tissues were rinsed three times in fresh medium plus 10% NRS, then cut into pieces of 20-30 mg.
Articular cartilage was obtained from the knees of normal, young rabbits, weighing 1.0 to 1.5 kg. The knees were shaved, the rabbits sacrificed and the joint exposed as described above. […]

arthritic paw swelling = details: result in words; cited from earlier work

C/C(O)=C(\C#N)C(=O)Oc1ccccc1Cl [2-Cyano-3-hydroxycrotonic acid, o-chlorophenyl ester]
Dead/Treated At 21 Days ([1]; 50 mg./kg. body weight): 0/9 | Mean Weight Gain, Day 14 ([1]; 50 mg./kg.): 25 grams | % Inhibition of Swelling (Primary lesion), Day 14 ([1]; 50 mg./kg.): 57% | % Inhibition of Swelling (Primary lesion), Day 21 ([1]; 50 mg./kg.): 35% | Mean Weight Gain, Day 21 ([1]; 50 mg./kg.): 29 grams

C/C(O)=C(\C#N)C(=O)Oc1ccccc1F [2-Cyano-3-hydroxycrotonic acid, o-fluorophenyl ester]
inhibition at 10 µg/mL [2]: 52.3%

COc1ccc(OC(=O)/C(C#N)=C(/C)O)cc1 [2-Cyano-3-hydroxycrotonic acid, p-methoxyphenyl ester]
inhibition at 10 µg/mL [2]: 58.4%

COc1ccccc1OC(=O)/C(C#N)=C(/C)O [2-Cyano-3-hydroxycrotonic acid, o-methoxyphenyl ester]
inhibition at 10 µg/mL [2]: 49.3%

C/C(O)=C(\C#N)C(=O)Oc1ccc(C)cc1 [2-Cyano-3-hydroxycrotonic acid, p-tolyl ester]
inhibition at 10 µg/mL [2]: 50.3%

COc1ccc2c(c1)c(CC(=O)O)c(C)n2C(=O)c1ccc(Cl)cc1 [indomethacin]
arthritic paw swelling (arthritic paw swelling): inhibit arthritic paw swelling | joint and bone deterioration (arthritic paw swelling): prevent joint and bone deterioration

C/C(O)=C(\C#N)C(=O)Oc1cccc(Cl)c1Cl [2-Cyano-3-hydroxycrotonic acid, 2,3-dichlorophenyl ester]
Dead/Treated At 21 Days ([1]; 50 mg./kg. body weight): 11/24 | Mean Weight Gain, Day 14 ([1]; 50 mg./kg.): 36 grams | % Inhibition of Swelling (Primary lesion), Day 14 ([1]; 50 mg./kg.): 41% | % Inhibition of Swelling (Primary lesion), Day 21 ([1]; 50 mg./kg.): 0% | Mean Weight Gain, Day 21 ([1]; 50 mg./kg.): 32 grams

C/C(O)=C(\C#N)C(=O)Oc1ccc(Cl)cc1 [2-Cyano-3-hydroxycrotonic acid, p-chlorophenyl ester]
Dead/Treated At 21 Days ([1]; 25 mg./kg. body weight): 2/18 | Mean Weight Gain, Day 14 ([1]; 25 mg./kg.): 60 grams | % Inhibition of Swelling (Primary lesion), Day 14 ([1]; 25 mg./kg.): 45% | % Inhibition of Swelling (Primary lesion), Day 21 ([1]; 25 mg./kg.): 0% | Mean Weight Gain, Day 21 ([1]; 25 mg./kg.): 46 grams
